PubChem BioAssay (NCI)
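Results reflect a 48-hour exposure of cells in 96-well plates to compound at five concentrations. At the GI50, growth is halved. TGI: concentration producing complete growth inhibition.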

Key:
Assay in all cases: NCI anticancer screen, dose series, 48 h
HL-60(TB) leukemia = tested on: HL-60(TB) leukemia
SN12C renal = tested on: SN12C renal
KM12 colon = tested on: KM12 colon
SNB-75 CNS = tested on: SNB-75 CNS
NCI-H460 lung = tested on: NCI-H460 lung
NCI-H23 lung = tested on: NCI-H23 lung
SF-539 CNS = tested on: SF-539 CNS
HT29 colon = tested on: HT29 colon
SK-MEL-2 melanoma = tested on: SK-MEL-2 melanoma
K-562 leukemia = tested on: K-562 leukemia

## C=C(C)[C@@H]1CC[C@]2(C(=O)NCCCN)CC[C@]3(C)[C@H](CC[C@@H]4[C@@]5(C)CC[C@H](O)C(C)(C)[C@@H]5CC[C@]43C)[C@@H]12
HL-60(TB) leukemia
  GI50: 16.5 µM
  TGI: 50.7 µM
SN12C renal
  GI50: 20.8 µM
  TGI: 82.6 µM
KM12 colon
  GI50: 17.3 µM
  TGI: 52.9 µM
SNB-75 CNS
  GI50: 32.1 µM
  TGI: > 100 µM
NCI-H460 lung
  GI50: 14 µM
  TGI: > 100 µM
NCI-H23 lung
  GI50: 22.6 µM
  TGI: 87.1 µM
SF-539 CNS
  GI50: 17.9 µM
  TGI: 52 µM
HT29 colon
  GI50: 6.95 µM
  TGI: 38.4 µM
SK-MEL-2 melanoma
  GI50: 27.3 µM
  TGI: 85.8 µM
K-562 leukemia
  GI50: 9.84 µM
  TGI: 31.3 µM

## CCn1c(-c2nonc2N)nc2cncc(C(=O)N3CCNCC3)c21
HL-60(TB) leukemia
  GI50: > 25 µM
  TGI: > 25 µM
SN12C renal
  GI50: > 25 µM
  TGI: > 25 µM
KM12 colon
  GI50: > 25 µM
  TGI: > 25 µM
SNB-75 CNS
  GI50: > 25 µM
  TGI: > 25 µM
NCI-H460 lung
  GI50: > 25 µM
  TGI: > 25 µM
NCI-H23 lung
  GI50: > 25 µM
  TGI: > 25 µM
SF-539 CNS
  GI50: > 25 µM
  TGI: > 25 µM
HT29 colon
  GI50: > 25 µM
  TGI: > 25 µM
SK-MEL-2 melanoma
  GI50: > 25 µM
  TGI: > 25 µM
K-562 leukemia
  GI50: > 25 µM
  TGI: > 25 µM

## CC12CCC(=O)C=C1CCC1C2CCC2(C)C(C(=O)Cn3cnc4c(=S)nc[nH]c43)CCC12 (centres undefined)
HL-60(TB) leukemia
  TGI: > 100 µM
SN12C renal
  TGI: > 100 µM
KM12 colon
  TGI: > 100 µM
SNB-75 CNS
  TGI: 36.8 µM
NCI-H460 lung
  TGI: > 100 µM
NCI-H23 lung
  TGI: 82.5 µM
SF-539 CNS
  TGI: > 100 µM
HT29 colon
  TGI: > 100 µM
SK-MEL-2 melanoma
  TGI: > 100 µM
K-562 leukemia
  TGI: > 100 µM

## CCOP(=O)(OCC)C1CCCCOC1=O (centres undefined)
HL-60(TB) leukemia
  TGI: > 100 µM
SN12C renal
  TGI: > 100 µM
KM12 colon
  TGI: > 100 µM
SNB-75 CNS
  TGI: > 100 µM
NCI-H460 lung
  TGI: > 100 µM
NCI-H23 lung
  TGI: > 100 µM
SF-539 CNS
  TGI: > 100 µM
HT29 colon
  TGI: > 100 µM
SK-MEL-2 melanoma
  TGI: > 100 µM
K-562 leukemia
  TGI: > 100 µM

## CC1CC2C(=O)NC(=O)C2c2[nH]c3ccccc3c21 (centres undefined)
HL-60(TB) leukemia
  TGI: > 100 µM
SN12C renal
  TGI: > 100 µM
KM12 colon
  TGI: > 100 µM
SNB-75 CNS
  TGI: > 100 µM
NCI-H460 lung
  TGI: > 100 µM
NCI-H23 lung
  TGI: > 100 µM
SF-539 CNS
  TGI: > 100 µM
HT29 colon
  TGI: > 100 µM
SK-MEL-2 melanoma
  TGI: > 100 µM
K-562 leukemia
  TGI: > 100 µM

## Cc1ccc2c(c1)C1(C)OC(CC(N)C1O)O2 (centres undefined)
HL-60(TB) leukemia
  TGI: > 100 µM
SN12C renal
  TGI: > 100 µM
KM12 colon
  TGI: > 100 µM
SNB-75 CNS
  TGI: > 100 µM
NCI-H460 lung
  TGI: > 100 µM
NCI-H23 lung
  TGI: > 100 µM
SF-539 CNS
  TGI: > 100 µM
HT29 colon
  TGI: > 100 µM
SK-MEL-2 melanoma
  TGI: > 100 µM
K-562 leukemia
  TGI: > 100 µM

## O=C(O)CSSCC(=O)O
HL-60(TB) leukemia
  TGI: > 100 µM
SN12C renal
  TGI: > 100 µM
KM12 colon
  TGI: > 100 µM
SNB-75 CNS
  TGI: > 100 µM
NCI-H460 lung
  TGI: > 100 µM
NCI-H23 lung
  TGI: > 100 µM
SF-539 CNS
  TGI: > 100 µM
HT29 colon
  TGI: > 100 µM
SK-MEL-2 melanoma
  TGI: > 100 µM
K-562 leukemia
  TGI: > 100 µM

## N#CC(C#N)=Cc1ccc(-c2ccc(-c3nc4ccccc4s3)cc2)o1
HL-60(TB) leukemia
  GI50: 37.4 µM
  TGI: > 100 µM
SN12C renal
  GI50: 1.09 µM
  TGI: 12.6 µM
KM12 colon
  GI50: 16.9 µM
  TGI: > 100 µM
SNB-75 CNS
  GI50: 25.3 µM
  TGI: 60 µM
NCI-H460 lung
  GI50: 30.1 µM
  TGI: > 100 µM
NCI-H23 lung
  GI50: 15.6 µM
  TGI: 43.3 µM
SF-539 CNS
  GI50: 11.2 µM
  TGI: 26.7 µM
HT29 colon
  GI50: 46 µM
  TGI: > 100 µM
SK-MEL-2 melanoma
  GI50: 63.2 µM
  TGI: > 100 µM
K-562 leukemia
  GI50: 27.4 µM
  TGI: > 100 µM

## COC12C=CC(CC1)c1c(O)ccc(O)c12 (centres undefined)
HL-60(TB) leukemia
  TGI: 41.6 µM
SN12C renal
  TGI: > 100 µM
KM12 colon
  TGI: > 100 µM
SNB-75 CNS
  TGI: > 100 µM
NCI-H460 lung
  TGI: > 100 µM
NCI-H23 lung
  TGI: > 100 µM
SF-539 CNS
  TGI: > 100 µM
HT29 colon
  TGI: > 100 µM
SK-MEL-2 melanoma
  TGI: > 76.3 µM
K-562 leukemia
  TGI: 61.8 µM

## CCN(CC)c1ccc(/C=C/c2cc(C)c3ccccc3n2)cc1
HL-60(TB) leukemia
  GI50: 3.42 µM
  TGI: 27.8 µM
SN12C renal
  GI50: 7.27 µM
  TGI: > 100 µM
KM12 colon
  GI50: 2.31 µM
  TGI: 13.2 µM
SNB-75 CNS
  GI50: 3.09 µM
  TGI: 9.4 µM
NCI-H460 lung
  GI50: 3 µM
  TGI: 11.7 µM
NCI-H23 lung
  GI50: 3.43 µM
  TGI: 39.3 µM
SF-539 CNS
  GI50: 3.2 µM
  TGI: 9.61 µM
HT29 colon
  GI50: 2.41 µM
  TGI: 7.39 µM
SK-MEL-2 melanoma
  GI50: 2.61 µM
  TGI: 6.78 µM
K-562 leukemia
  GI50: 0.64 µM
  TGI: 15 µM

## COc1cc2c(cc1OC)-c1ccc3cc4c(cc3c1N(CCN1CCCC1)C2)OCO4
HL-60(TB) leukemia
  GI50: 0.882 µM
  TGI: 2.7 µM
SN12C renal
  GI50: 0.345 µM
  TGI: 1.43 µM
KM12 colon
  GI50: 0.538 µM
  TGI: 1.99 µM
SNB-75 CNS
  GI50: 0.357 µM
  TGI: 5.81 µM
NCI-H460 lung
  GI50: 0.289 µM
  TGI: 1.17 µM
NCI-H23 lung
  GI50: 0.447 µM
  TGI: 2.14 µM
SF-539 CNS
  GI50: 0.643 µM
  TGI: 2.75 µM
HT29 colon
  GI50: 0.313 µM
  TGI: 1.47 µM
SK-MEL-2 melanoma
  GI50: 7.61 µM
  TGI: 20.1 µM
K-562 leukemia
  GI50: 0.291 µM
  TGI: 1.65 µM

## CN(C)CCNC(=O)c1cccn2c(=O)c3cc4ccccc4cc3nc12
HL-60(TB) leukemia
  GI50: 0.36 µM
  TGI: 9.73 µM
SN12C renal
  GI50: 0.144 µM
  TGI: > 100 µM
KM12 colon
  GI50: 0.161 µM
  TGI: 1.41 µM
SNB-75 CNS
  GI50: 0.28 µM
  TGI: 1.77 µM
NCI-H460 lung
  GI50: 0.0439 µM
  TGI: 0.283 µM
NCI-H23 lung
  GI50: 0.165 µM
  TGI: 1.01 µM
SF-539 CNS
  GI50: 0.161 µM
  TGI: 1.6 µM
HT29 colon
  GI50: 0.0691 µM
SK-MEL-2 melanoma
  GI50: 0.203 µM
  TGI: 1.32 µM
K-562 leukemia
  GI50: 0.208 µM
  TGI: 40.8 µM

## CC1=CC(=O)c2c(O)cccc2C1=O
HL-60(TB) leukemia
  TGI: 0.398 µM
SN12C renal
  TGI: 3.39 µM
KM12 colon
  TGI: 19.5 µM
SNB-75 CNS
  TGI: 16.9 µM
NCI-H460 lung
  TGI: > 26.1 µM
NCI-H23 lung
  TGI: 3.47 µM
SF-539 CNS
  TGI: 3.92 µM
HT29 colon
  TGI: 3.46 µM
SK-MEL-2 melanoma
  TGI: 3.72 µM
K-562 leukemia
  TGI: 2.52 µM

## CCCN1C(=O)/C(=c2\sc3n(c2=O)C2C(NN=3)N(CC)C(=O)N2CC)c2ccccc21 (centres undefined)
HL-60(TB) leukemia
  GI50: 0.3 µM
  TGI: 1.03 µM
SN12C renal
  GI50: 1.26 µM
  TGI: 20.1 µM
KM12 colon
  GI50: 0.41 µM
  TGI: 13.8 µM
SNB-75 CNS
  GI50: 0.199 µM
  TGI: 0.79 µM
NCI-H460 lung
  GI50: 0.411 µM
  TGI: 12.1 µM
NCI-H23 lung
  GI50: 0.792 µM
  TGI: 15.8 µM
SF-539 CNS
  GI50: 0.258 µM
  TGI: 0.802 µM
HT29 colon
  GI50: 0.347 µM
  TGI: 12.2 µM
SK-MEL-2 melanoma
  GI50: 0.799 µM
  TGI: 15.4 µM
K-562 leukemia
  GI50: 0.374 µM
  TGI: > 100 µM
